Test system: 633275-114-R-J1-PDC complex spheroids, viability
Test: Anticancer human tumor 633275-114-R-J1-PDC patient-derived endometrial adenocarcinoma cell line growth inhibition [GQUAD]
Conditions: for IC50: curve of first compound; for viability, T/C: stronger effect = lower value
From the text: DNA G-quadruplex Stabilizer Agents in Combinations in Complex Spheroids
A high-throughput screen of multi-cell type tumor spheroids was designed to identify active combinations of DNA G-quadruplex stabilizer agents and targeted small molecules. Complex spheroids include a stromal component modeled by human endothelial cells (HUVEC) and fibroblasts modeled by human mesenchymal stem cells (MSCs). The concentration ranges selected for each drug and investigational agent were based upon clinically achievable concentrations if the clinical Cmax of the agent was known.
Compounds. The drugs and investigational agents: pidnarulex (CX-5461; NSC782164), APTO-253 (NSC789042), BRACO-19 (NSC847499), peposertib (NSC802822), ceralasertib (NSC780249), elimusertib (NSC800525), camonsertib (NSC841442), AZD-1390 (NSC803789), olaparib (NSC753686), talazoparib (NSC767125), ART-558 (NSC835418), sotorasib (NSC818433), MRTX-1133 (NSC836407), SN-38 (NSC673596), topotecan (NSC609699), etoposide (NSC141540), doxorubicin (NSC123127), gemcitabine (NSC613327), 5-fluorouracil (NSC19893), paclitaxel (NSC125973), vemurafenib (NSC761431), panobinostat (NSC761190), R-306465 (JNJ-16241199; NSC773264), adavosertib (NSC754352), TP-3654 (NSC805149), carboplatin (NSC241240), KSQ-4279 (NSC840948), and staurosporine (NSC755774) were obtained from the National Cancer Institute (NCI) Developmental Therapeutics Program Chemical Repository (34). The FDA-approved anticancer drug set is available from the NCI Developmental Therapeutics Program. […] The stock solutions were prepared in dimethyl sulfoxide (DMSO, Sigma-Aldrich, St. Louis, MO, cat. D2650) at 800-fold the tested concentration and stored at -70 degrees C prior to their use. All drugs and investigational agents were tested over a range starting from a high concentration at or near the clinical Cmax and decreasing in half-log increments. If the clinical Cmax for an agent had not been determined, the highest concentration tested was 10 microM.
2.3 Cell Culture. All cells were maintained in an incubator at 37 degrees C and 5% CO2 with 95% humidity. The PDC lines were cultured according to standard operating procedures established by the NCI PDMR. All PDCs were thawed and cultured in Matrigel-coated flasks prepared with a working solution of 1X Ham's F-12 nutrient mix, without supplementation (Invitrogen, cat. 11765054), 100 U/mL penicillin-streptomycin (Invitrogen, cat. 15140122), and 2.5% Matrigel (Corning Inc., cat. 354248) for the first three passages. The 857933-349-R-J2-PDC line was cultured in 6C/Colon 1B media, which includes advanced DMEM/F-12 (Thermo Fisher Scientific, cat. 12634028), 10 mM HEPES (Thermo Fisher Scientific, cat. 15630080), 1X GlutaMAX supplement (Thermo Fisher Scientific, cat. 35050061), 0.1 mg/mL primocin (InvivoGen, cat. ant-pm-2), 10% defined fetal bovine serum, heat inactivated (HyClone Laboratories Inc., cat. SH30070.03HI), 50% L-WRN conditioned media (ATCC, cat. CRL-3276), 1.25 mM N-Acetyl-L-cysteine (Sigma-Aldrich, cat. A9165), 10 mM nicotinamide (Sigma-Aldrich, cat. N0636), 1X B-27 supplement (Thermo Fisher Scientific, cat. 17504044), 1X N-2 supplement (Thermo Fisher Scientific, cat. 17502048), 10 microM Y-27632 dihydrochloride (Tocris Bioscience, cat. 1254), and 50 ng/mL human EGF recombinant protein (Thermo Fisher Scientific, cat. PHG0311). The 485176-168-R4-J1-PDC line was cultured in Panc media, which includes all 6C/Colon 1B media components plus 100 ng/mL human FGF-10 (Thermo Fisher Scientific, cat. 100-26), 500 nM SB-431542 (Selleckchem, cat. S1067), and gastrin (Tocris, cat. 3006).
[…]
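Note: spheroids exposed to the agents for seven days.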
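Throughout, for viability, T/C: percent of DMSO vehicle control viability which is 100%.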

O=C(c1cc(Cc2n[nH]c(=O)c3ccccc23)ccc1F)N1CCN(C(=O)C2CC2)CC1 + Cc1cnc(CNC(=O)c2c(=O)c3ccc(N4CCCN(C)CC4)nc3n3c2sc2ccccc23)cn1
IC50 (second compound 0.0316 µM): 9930 nM | IC50 (second compound 0.1 µM): 43.6 nM | IC50 (second compound 0.316 µM): < 31.6 nM | IC50 (second compound 1 µM): < 31.6 nM | IC50 (second compound 3.16 µM): < 31.6 nM | IC50 (second compound 10 µM): < 31.6 nM | viability, T/C (second compound 0.0316 µM, first compound 0.0316 µM): 63% | viability, T/C (second compound 0.0316 µM, first compound 0.1 µM): 60.9% | viability, T/C (second compound 0.0316 µM, first compound 0.316 µM): 71.4% | viability, T/C (second compound 0.0316 µM, first compound 1 µM): 58.2% | viability, T/C (second compound 0.0316 µM, first compound 3.16 µM): 57.2% | viability, T/C (second compound 0.0316 µM, first compound 10 µM): 50.3% | viability, T/C (second compound 0.1 µM, first compound 0.0316 µM): 49.5% | viability, T/C (second compound 0.1 µM, first compound 0.1 µM): 47.9% | viability, T/C (second compound 0.1 µM, first compound 0.316 µM): 49.1% | viability, T/C (second compound 0.1 µM, first compound 1 µM): 48.9% | viability, T/C (second compound 0.1 µM, first compound 3.16 µM): 41.9% | viability, T/C (second compound 0.1 µM, first compound 10 µM): 42.8% | viability, T/C (second compound 0.316 µM, first compound 0.0316 µM): 46.6% | viability, T/C (second compound 0.316 µM, first compound 0.1 µM): 42.7% | viability, T/C (second compound 0.316 µM, first compound 0.316 µM): 43.7% | viability, T/C (second compound 0.316 µM, first compound 1 µM): 38.9% | viability, T/C (second compound 0.316 µM, first compound 3.16 µM): 44% | viability, T/C (second compound 0.316 µM, first compound 10 µM): 33.7% | viability, T/C (second compound 1 µM, first compound 0.0316 µM): 37.7% | viability, T/C (second compound 1 µM, first compound 0.1 µM): 35.3% | viability, T/C (second compound 1 µM, first compound 0.316 µM): 45.3% | viability, T/C (second compound 1 µM, first compound 1 µM): 42.6% | viability, T/C (second compound 1 µM, first compound 3.16 µM): 37% | viability, T/C (second compound 1 µM, first compound 10 µM): 35.1% | viability, T/C (second compound 3.16 µM, first compound 0.0316 µM): 37.8% | viability, T/C (second compound 3.16 µM, first compound 0.1 µM): 38.9% | viability, T/C (second compound 3.16 µM, first compound 0.316 µM): 42.2% | viability, T/C (second compound 3.16 µM, first compound 1 µM): 30.9% | viability, T/C (second compound 3.16 µM, first compound 3.16 µM): 34.3% | viability, T/C (second compound 3.16 µM, first compound 10 µM): 31% | viability, T/C (second compound 10 µM, first compound 0.0316 µM): 33.4% | viability, T/C (second compound 10 µM, first compound 0.1 µM): 31.2% | viability, T/C (second compound 10 µM, first compound 0.316 µM): 28.5% | viability, T/C (second compound 10 µM, first compound 1 µM): 30.9% | viability, T/C (second compound 10 µM, first compound 3.16 µM): 33.7% | viability, T/C (second compound 10 µM, first compound 10 µM): 29.8%
